From patent publication US7163940B2, “Pyrazolopyridinyl pyrimidine therapeutic compounds” (SmithKline Beecham Corporation, priority 2000, dated 2007)

Test system: HSV-1
Assay: HSV-1 replication in infected Vero 76 cells, viral DNA hybridization capture assay
Type: cell-based
Details: HSV-1, Vero 76 cells, MOI=0.001, 40–48 hours incubation
Method: Vero 76 cells were maintained in MEM with Earle's salts, L-glutamine, 8% FBS (Hyclone, A-1111-L) and 100 units/mL Penicillin-100 μg/mL Streptomycin. For assay conditions, FBS was reduced to 2%. Cells are seeded into 96-well tissue culture plates at a density of 5×10^4 cells/well after being incubated for 45 min at 37° C. in the presence of HSV-1 or HSV-2 (MOI=0.001). Test compounds are added to the wells and the plates are incubated at 37° C. for 40–48 hours. Cell lysates are prepared as follows: media was removed and replaced with 150 μL/well 0.2 N NaOH with 1% Igepal CA 630 or NP-40. Plates were incubated up to 14 days at room temperature in a humidified chamber to prevent evaporation. • (b) Preparation of Detection DNA.
For the detection probe, a gel-purified, digoxigenin-labeled, […] PCR fragment of the HSV UL-15 sequence was utilized. PCR conditions included 0.5 μM primers, 180 μM dTP, 20 μM dUTP-digoxigenin (Boehringer Mannheim 1558706), 200 μM each of dATP, dCTP, and dGTP, 1×PCR Buffer II (Perkin Elmer), 2.5 mM MgCl2, 0.025 units/μL of AmpliTaq Gold polymerase (Perkin Elmer), and 5 ng of gel-purified HSV DNA per 100 μL. Extension conditions were 10 min at 95° C., followed by 30 cycles of 95° C. for 1 min, 55° C. for 30 sec, and 72° C. for 2 min. The amplification was completed with a 10-min incubation at 72° C. Primers were selected to amplify a 728 bp probe spanning a section of the HSV1 UL15 open reading frame (nucleotides 249–977). Single-stranded transcripts were purified with Promega M13 Wizard kits. The final product was mixed 1:1 with a mixture of 6 M GuSCN, 100 mM EDTA and 200 μg/mL herring sperm DNA and stored at 4° C. • (c) Preparation of Capture Plates.
The capture DNA plasmid (HSV UL13 region in pUC) was linearized by cutting with Xba I, denatured for 15 min at 95° C. and diluted immediately into Reacti-Bind DNA Coating Solution (Pierce, 17250, diluted 1:1 with TE buffer, pH 8) at 1 ng/μL 75 μL/well were added to Corning (#3922 or 9690) white 96-well plates and incubated at room temperature for at least 4 hrs before washing twice with 300 μL/well 0.2×SSC/0.05% Tween-20 (SSC/T buffer). The plates were then incubated overnight at room temperature with 150 μL/well 0.2 N NaOH, 1% IGEPAL and 10 μg/mL herring sperm DNA. • (d) Hybridization.
Twenty-seven (27) μL of cell lysate was combined with 45 μL of hybridization solution (final concentration: 3M GuSCN, 50 mM EDTA, 100 μg/ml salmon sperm DNA, 5× Denhardt's solution, 0.25×APE, and 5 ng of the digoxigenin-labeled detection probe). APE is 1.5 M NH4-acetate, 0.15 M ammonium phosphate, and 5 mM EDTA adjusted to pH 6.0. Mineral oil (50 μL) was added to prevent evaporation. The hybridization plates were incubated at 95° C. for 10 minutes to denature the DNA, then incubated at 42° C. overnight. The wells were washed 6× with 300 μL/well SSC/T buffer then incubated with 75 μL/well anti-digoxigenin-HRP-conjugated antibody (Boehringer Mannheim 1207733, 1:5000 in TE) for 30 min at room temperature. The wells were washed 6× with 300 μL/well with PBS/0.05% Tween-20 before 75 μL/well SuperSignal LBA substrate (Pierce) was added. The plates were incubated at room temperature for 30 minutes and chemiluminescence was measured in a Wallac Victor reader. • e) Results.
The following results were obtained for HSV-1.

**Q.** `CCCCNc1nccc(-c2c(-c3ccc(F)cc3)nn3c(NCCC)cccc23)n1` [Example 55, 3-[2-(Butylamino)-4-pyrimidinyl]-2-(4-fluorophenyl)-N-propylpyrazolo[1,5-α]pyridin-7-amine] was tested. Which IC50 did it give?
**A.** Its IC50 is 1.2 µM.

**Q.** How did the IC50 turn out when `Cc1cc(-c2c(-c3ccc(F)cc3)nn3c(NC4CCCC4)cccc23)nc(NC2CCCC2)n1` [Example 8, N-Cyclopentyl-3-[2-(cyclopentylamino)-6-methyl-4-pyrimidinyl]-2-(4-fluorophenyl)pyrazolo[1,5-α]pyridin-7-amine] was run?
**A.** Its IC50 is 0.8 µM.

Same assay, conditions: Human alphaherpesvirus 1, Vero 76, HSV-1, Vero 76 cells, MOI=0.001, 40–48 hours incubation

**Q.** For `CCN(CC)c1cccc2c(-c3ccncc3)c(-c3ccc(F)cc3)nn12` [Example 59, N,N-Diethyl-2-(4-fluorophenyl)-3-(4-pyridinyl)pyrazolo[1,5-α]pyridin-7-amine], which IC50 is on record?
**A.** Its IC50 is 4 µM.

**Q.** With `NCCNc1cccc2c(-c3cc(-c4ccccc4)nc(NC4CCCC4)n3)c(-c3ccc(F)cc3)nn12` [Example 20, N′-[3-[2-(Cyclopentylamino)-6-phenyl-4-pyrimidinyl]-2-(4-fluorophenyl)pyrazolo[1,5-α]pyridin-7-yl]-1,2-ethanediamine] as the compound, how does the IC50 read?
**A.** The IC50 was 3 µM.

**Q.** How did the IC50 turn out when `CCCCNc1cccc2c(-c3ccnc(OCCN4CCOCC4)n3)c(-c3ccc(F)cc3)nn12` [Example 46, N-Butyl-2-(4-fluorophenyl)-3-{2-[2-(4-morpholinyl)ethoxy]-4-pyrimidinyl}pyrazolo[1,5-α]pyridin-7-amine] was run?
**A.** Its IC50 is 7 µM.

**Q.** With `CCCCNc1cccc2c(-c3ccnc(NC4CC4)n3)c(-c3ccc(F)cc3)nn12` [Example 4, N-Butyl-3-[2-(cyclopropylamino)-4-pyrimidinyl]-2-(4-fluorophenyl)-pyrazolo[1,5-α]pyridin-7-amine] as the compound, how does the IC50 read?
**A.** Its IC50 is 0.6 µM.

**Q.** Which IC50 does the source give for `Fc1ccc(-c2nn3c(N4CCCC4)cccc3c2-c2ccnc(NC3CCCC3)n2)cc1` [Example 31, N-Cyclopentyl-4-[2-(4-fluorophenyl)-7-(1-pyrrolidinyl)pyrazolo[1,5-α]pyridin-3-yl]-2-pyrimidinamine] here?
**A.** The IC50 was 1 µM.

**Q.** For `CN(C)Cc1cc(-c2c(-c3ccc(F)cc3)nn3c(NC4CCCC4)cccc23)nc(NC2CCCC2)n1` [Example 51, N-Cyclopentyl-3-{2-(cyclopentylamino)-6-[(dimethylamino)methyl]-4-pyrimidinyl}-2-(4-fluorophenyl)pyrazolo[1,5-α]pyridin-7-amine], which IC50 is on record?
**A.** Its IC50 is 5 µM.

**Q.** Which IC50 does the source give for `Cc1cc(-c2c(-c3ccc(F)cc3)nn3c(N)cccc23)nc(NC2CCCC2)n1` [Example 72, 3-[2-(Cyclopentylamino)-6-methylpyrimidin-4-yl]-2-(4-fluorophenyl)pyrazolo[1,5-α]pyridin-7-amine] here?
**A.** Its IC50 is 4.4 µM.

**Q.** With `Fc1ccc(-c2nn3c(N4CCCC4)cccc3c2-c2ccnc(N3CCCC3)n2)cc1` [Example 69, 2-(4-Fluorophenyl)-7-pyrrolidin-1-yl-3-(2-pyrrolidin-1-ylpyrimidin-4-yl)pyrazolo[1,5-α]pyridine] as the compound, how does the IC50 read?
**A.** Its IC50 is 4.2 µM.

**Q.** `CCCCNc1nccc(-c2c(-c3ccc(F)cc3)nn3c(-c4ccco4)cccc23)n1` [Example 78, N-Butyl-4-[2-(4-fluorophenyl)-7-(2-furyl)pyrazolo[1,5-α]pyridin-3-yl]pyrimidin-2-amine] was tested. Which IC50 did it give?
**A.** The IC50 was 0.95 µM.

**Q.** How did the IC50 turn out when `CCCCNc1cccc2c(-c3ccnc(N4CCOCC4)n3)c(-c3ccc(F)cc3)nn12` [Example 40, N-Butyl-2-(4-fluorophenyl)-3-[2-(4-morpholinyl)-4-pyrimidinyl]pyrazolo[1,5-α]pyridin-7-amine] was run?
**A.** Its IC50 is 15 µM.

**Q.** For `CCCCNc1cccc2c(-c3ccnc(NCCCO)n3)c(-c3ccc(F)cc3)nn12` [Example 38, 3-({4-[7-(Butylamino)-2-(4-fluorophenyl)pyrazolo[1,5-α]pyridin-3-yl]-2-pyrimidinyl}amino)-1-propanol], which IC50 is on record?
**A.** The IC50 was 5 µM.

**Q.** `CN(C)c1nccc(-c2c(-c3ccc(F)cc3)nn3c(N4CCCC4)cccc23)n1` [Example 32, 4-[2-(4-Fluorophenyl)-7-(1-pyrrolidinyl)pyrazolo[1,5-α]pyridin-3-yl]-N,N-dimethyl-2-pyrimidinamine] was tested. Which IC50 did it give?
**A.** The IC50 was 5 µM.

**Q.** `Cc1cc(-c2c(-c3ccc(F)cc3)nn3c(Cl)cccc23)nc(NC2CCCC2)n1` [Example 7, 4-[7-Chloro-2-(4-fluorophenyl)pyrazolo[1,5-α]pyridin-3-yl]-N-cyclopentyl-6-methyl-2-pyrimidinamine] was tested. Which IC50 did it give?
**A.** Its IC50 is 3.9 µM.

**Q.** With `CCCCNc1nccc(-c2c(-c3ccc(Br)cc3)nn3c(NCCCC)cccc23)n1` [Example 2, 2-(4-Bromophenyl)-N-butyl-3-[2-(butylamino)-4-pyrimidinyl]pyrazolo[1,5-α]pyridin-7-amine] as the compound, how does the IC50 read?
**A.** The IC50 was 0.7 µM.

**Q.** `OCc1cc(-c2c(-c3ccc(F)cc3)nn3c(NC4CCCC4)cccc23)nc(NC2CCCC2)n1` [Example 22, {2-(Cyclopentylamino)-6-[7-(cyclopentylamino)-2-(4-fluorophenyl)pyrazolo[1,5-α]pyridin-3-yl]-4-pyrimidinyl}methanol] was tested. Which IC50 did it give?
**A.** The IC50 was 5 µM.

**Q.** Which IC50 does the source give for `Cc1cc(-c2c(-c3ccc(F)cc3)nn3c(NC4CCCC4)cccc23)nc(N(C)C)n1` [Example 81, N-Cyclopentyl-3-[2-(dimethylamino)-6-methylpyrimidin-4-yl]-2-(4-fluorophenyl)pyrazolo[1,5-α]pyridin-7-amine] here?
**A.** The IC50 was greater than 20 µM.

**Q.** `CCCCNc1cccc2c(-c3ccnc(N4CCCC4)n3)c(-c3ccc(Br)cc3)nn12` [Example 9, 2-(4-Bromophenyl)-N-butyl-3-[2-(1-pyrrolidinyl)-4-pyrimidinyl]pyrazolo[1,5-α]pyridin-7-amine] was tested. Which IC50 did it give?
**A.** Its IC50 is 8 µM.

**Q.** For `Fc1ccc(-c2nn3c(Cl)cccc3c2-c2ccnc(C3CC3)n2)cc1` [Example 76, 7-Chloro-3-(2-cyclopropylpyrimidin-4-yl)-2-(4-fluorophenyl)pyrazolo[1,5-α]pyridine], which IC50 is on record?
**A.** The IC50 was greater than 20 µM.

**Q.** Which IC50 does the source give for `Fc1ccc(-c2nn3c(NC4CCCC4)cccc3c2-c2cc(NC3CCCC3)ncn2)cc1` [Example 84, N-cyclopentyl-3-[6-(cyclopentylamino)pyrimidin-4-yl]-2-(4-fluorophenyl)pyrazolo[1,5-α]pyridin-7-amine] here?
**A.** The IC50 was 1.3 µM.

**Q.** With `CCCCNc1nccc(-c2c(-c3ccc(F)cc3)nn3c(NC)cccc23)n1` [Example 49, 3-[2-(Butylamino)-4-pyrimidinyl]-2-(4-fluorophenyl)-N-methylpyrazolo[1,5-α]pyridin-7-amine] as the compound, how does the IC50 read?
**A.** Its IC50 is 1.2 µM.

**Q.** How did the IC50 turn out when `CCCCNc1nccc(-c2c(-c3ccc(F)cc3)nn3c(N(C)C)cccc23)n1` [Example 34, 3-[2-(Butylamino)-4-pyrimidinyl]-2-(4-fluorophenyl)-N,N-dimethylpyrazolo[1,5-α]pyridin-7-amine] was run?
**A.** The IC50 was 0.3 µM.

**Q.** With `CCCCNc1cccc2c(-c3ccnc(NC4CCCC4)n3)c(-c3ccc(Br)cc3)nn12` [Example 10, 2-(4-Bromophenyl)-N-butyl-3-[2-(cyclopentylamino)-4-pyrimidinyl]pyrazolo[1,5-α]pyridin-7-amine] as the compound, how does the IC50 read?
**A.** The IC50 was 5 µM.

**Q.** Which IC50 does the source give for `Nc1nccc(-c2c(-c3ccc(F)cc3)nn3c(NC4CCCC4)cccc23)n1` [Example 12, 3-(2-Amino-4-pyrimidinyl)-N-cyclopentyl-2-(4-fluorophenyl)pyrazolo[1,5-α]pyridin-7-amine] here?
**A.** The IC50 was 0.5 µM.

**Q.** Which IC50 does the source give for `CCCCNc1cccc2c(-c3ccnc(NC4CCCC4)n3)c(-c3ccc(F)cc3)nn12` [Example 6, N-Butyl-3-[2-(cyclopentylamino)-4-pyrimidinyl]-2-(4-fluorophenyl)pyrazolo[1,5-α]pyridin-7-amine] here?
**A.** Its IC50 is 0.2 µM.

**Q.** Which IC50 does the source give for `CCCCNc1cccc2c(-c3ccnc(N4CCCC4)n3)c(-c3ccc(F)cc3)nn12` [Example 5, N-Butyl-2-(4-fluorophenyl)-3-[2-(1-pyrrolidinyl)-4-pyrimidinyl]pyrazolo[1,5-α]pyridin-7-amine] here?
**A.** Its IC50 is 5 µM.
